Patent US5519021A, “Benzoxazinones as inhibitors of HIV reverse transcriptase” (priority 1995, dated 1996)

Tests used:
HIV-1 DM (double mutant) = assay: Cell spread assay, double mutant (DM); type: cell-based; settings: MT-4 cells
Description: (§1) Inhibition of the spread of HIV in cell culture was measured according to Nunberg, J. H. et al., J. Virol. 65, 4887 (1991 ). In this assay, MT-4 T-lymphoid cells were infected with HIV-1 (wild-type, unless otherwise indicated) by using a predetermined inoculum, and cultures were incubated for 24 h. At this time, ≤1% of the cells were positive by indirect immunofluorescence. Cells were then extensively washed and distributed into 96-well culture dishes. Serial twofold dilutions of inhibitor were added to the wells, and cultures were continued for 3 additional days. At 4 days postinfection, 100% of the cells in control cultures were infected. HIV-1 p24 accumulation was directly correlated with virus spread. The cell culture inhibitory concentration was defined as the inhibitor concentration in nanomoles/liter which reduced the spread of infection by at least 95%, or CIC95.
(§2) *Mutants K103N and Y181C are drugresistant HIV1 reverse transcriptases. D
is the double mutant, as discussed in the reverse transcriptase assay. RT

HIV-1 (wild-type) = assay: Cell spread assay (MT-4 T-lymphoid cells); type: cell-based; settings: Human immunodeficiency virus 1, MT4, 72 h; WT virus, MT-4 cells, N = 2; read-out: CIC95 (μM) WT
Description: as §1

HIV-1 Y181C = assay: Cell spread assay, Y181C mutant; type: cell-based; settings: MT-4 cells
Description: as §1, §2

[1] = biological target: T1, reverse transcriptase of HIV2 (Human immunodeficiency virus type 2 subtype A, UniProt P04584); assay: Reverse transcriptase assay, RT-2; type: biochemical
T1 construct: is the reverse transcriptase of HIV2
T1 sequence (P04584 613-1171): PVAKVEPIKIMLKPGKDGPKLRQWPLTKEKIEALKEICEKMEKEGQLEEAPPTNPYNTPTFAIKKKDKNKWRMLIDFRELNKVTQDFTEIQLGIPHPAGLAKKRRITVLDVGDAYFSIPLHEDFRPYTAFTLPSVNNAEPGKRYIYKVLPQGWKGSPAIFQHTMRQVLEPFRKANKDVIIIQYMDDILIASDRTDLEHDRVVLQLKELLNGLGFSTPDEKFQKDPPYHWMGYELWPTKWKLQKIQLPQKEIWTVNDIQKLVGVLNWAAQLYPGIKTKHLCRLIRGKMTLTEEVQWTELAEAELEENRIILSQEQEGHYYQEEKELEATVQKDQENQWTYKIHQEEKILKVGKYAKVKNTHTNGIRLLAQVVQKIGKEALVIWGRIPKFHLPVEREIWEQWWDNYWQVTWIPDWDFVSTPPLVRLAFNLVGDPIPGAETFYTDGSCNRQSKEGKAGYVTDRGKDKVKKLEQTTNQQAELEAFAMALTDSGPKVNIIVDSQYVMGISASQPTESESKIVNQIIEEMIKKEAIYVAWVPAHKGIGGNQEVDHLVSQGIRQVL
T1 sequence (P04584 613-1051): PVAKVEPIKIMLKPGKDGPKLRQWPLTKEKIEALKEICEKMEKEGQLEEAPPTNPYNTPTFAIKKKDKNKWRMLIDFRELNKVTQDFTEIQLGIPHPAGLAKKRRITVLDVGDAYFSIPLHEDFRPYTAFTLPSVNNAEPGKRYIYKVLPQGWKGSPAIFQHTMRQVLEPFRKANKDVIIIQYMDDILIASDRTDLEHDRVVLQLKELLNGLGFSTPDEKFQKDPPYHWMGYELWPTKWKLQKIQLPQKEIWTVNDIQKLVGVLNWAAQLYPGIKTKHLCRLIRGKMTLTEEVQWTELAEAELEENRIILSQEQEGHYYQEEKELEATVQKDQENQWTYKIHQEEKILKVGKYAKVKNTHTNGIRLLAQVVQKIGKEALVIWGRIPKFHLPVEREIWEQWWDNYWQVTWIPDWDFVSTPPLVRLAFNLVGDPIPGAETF
Description: The assay measures the incorporation of tritiated deoxyguanosine monophosphate by recombinant HIV reverse transcriptase (HIV RTR) (or other RT) into acid-precipitable cDNA at the Km values of dGTP and poly r(C).cndot.oligo d(G)12-18.
The assays were carried out in 55 mM Tris (pH 8.2)-30 mM KCl-30 mM MgCl2 -1 mM dithiothreitol-20 μg of rC:dG 12-18 (Pharmacia) per ml-8 mM [^3 H]dGTP (New England Nuclear)-0.01% Triton X-100-50 mM ethylene glycol-bis(β-amino-ethyl ether)-N,N,N',N'-tetraacetic acid (EGTA)-1 mg of bovine serum albumin per ml. After 60 min of incubation at 37° C., acid-precipitable material was collected onto glass fiber filters by using a semiautomatic cell harvester. Bacterial cell extracts containing RT were diluted to within the linear range of the assay, and activity was determined in the presence and absence of inhibitor. Purified HIV-1 RT heterodimer produced in E. coli also served as a control. Results are determined as inhibitor concentration to give 50% inhibition (IC50 wt), in nanomoles/liter.
is the reverse transcriptase of HIV2.

[2] = Protein binding (HPLC method); type: in vitro ADME; settings: Normal Human Plasma (HPLC Method)
Excerpt: Protein Binding: 98.0% Normal Human Plasma (HPLC Method)

HIV-1 K103N = assay: Cell spread assay, K103N mutant; type: cell-based; settings: MT-4 cells
Description: as §1, §2

O=C1Nc2ccc(Cl)cc2[C@@](C#CC2CC2)(C(F)(F)F)O1 [37.2(-), (-) 6-Chloro-4-cyclopropylethynyl-4-trifluoromethyl-1,4-dihydro-2H-3,1-benzoxazin-2-one]
CIC95 (μM) DM (HIV-1 DM (double mutant)): 0.400 µM | IC95 (HIV-1 (wild-type)): < 0.006 µM | CIC95 (μM) Y181C (HIV-1 Y181C): < 0.025 µM | IC50 [1]: 80.8 µM | fraction unbound [2]: 0.02 | CIC95 (μM) K103N (HIV-1 K103N): 0.100 µM
